In article PMC12084297, “Cytoplasmic connexin43-microtubule interactions promote glioblastoma stem-like cell maintenance and tumorigenicity” (Cell Death & Disease, 2025):
Entries after “also recorded” stand apart in the source; their conditions may differ.

Columns and labels:
normal human astrocytes [1] = assay: MTS viability, human astrocytes; type: cell-based; details: 100 μM, 4 days
Method: (§1) Cells were plated in 96-well plates (2000–5000 cells per well) and treated the following day with TMZ (10, 50, or 100 μM), antennapedia, JM2-scrambled, or JM2 (10, 50, or 100 μM). After 4 days, cell viability was monitored following addition of MTS reagent (Promega) according to manufacturer’s instructions. The absorbance at 490 nm was measured using a SpectraMax i3 or iD3 microplate reader (Molecular Devices). For the caspase 3/7 activity assay, cells were plated in 96-well plates (2000 cells per well) and treated with TMZ or peptides as described above. The activity of caspase 3/7 was measured after 48 h using the Caspase-Glo® 3/7 assay (Promega) following the manufacturer’s instructions. Fold change of caspase 3/7 activity was defined as the ratio of caspase 3/7 luminescence in treated cells compared to controls.

normal human astrocytes [2] = assay: Caspase 3/7 activity, human astrocytes; type: cell-based; details: 100 μM, 2 days
Method: as §1

VTC-034 GSCs = assay: Gliosphere formation assay, VTC-034 GSCs; type: cell-based, human; details: VTC-034, 10, 50 or 100 μM every other day, 2 weeks
Method: GSCs and PDX GBM22 cells were plated as single cell suspension in low-attachment 96-well plates (GSCs: 100–500 cells per well; GBM22 cells: 500–2000 cells per well), using methods similar to those reported previously. Cells were then treated with peptides every other day. 2 weeks later, gliospheres were observed using phase contrast microscopy on a Revolve microscope (Echo Laboratories). The number of gliospheres was then determined, while the gliosphere size was assessed by diameter measurement. To evaluate stem cell frequency in GSCs, gliosphere formation assay was performed with limiting cell dilutions with cells plated at varying densities in low-attachment 96-well plates. Cells were treated with peptides every other day, and after 2 weeks, gliosphere-positive wells were observed and scored using phase contrast microscopy on a Revolve microscope. The stem cell frequency was analyzed using the online data analysis program ELDA (Extreme Limiting Dilution Analysis).

Notch1 [3] = assay: Notch1 protein expression, immunoblot, VTC-001 GSCs; type: cell-based, human; details: 50 μM, 24 h
Method: (§2) Cells were lysed in RIPA buffer (0.1% sodium dodecyl sulphate, 50 mM Tris pH 7.4, 150 mM NaCl, 1 mM EDTA, 1% Triton X-100, 1% deoxycholic acid, 200 μM Na3VO4, and 1 mM NaF) supplemented with Halt^TM Protease and Phosphatase Inhibitor Cocktail (Thermo Fisher). Lysates were sonicated prior to centrifugation at 4 °C for 20 min at 10,000 x g. Protein concentration was quantified using the DC protein assay (Bio-Rad Laboratories) and a standard curve obtained with increasing concentrations of Bovine Serum Albumin (BSA; Fisher Scientific). Protein samples were normalized to 20 μg total protein per lane and resolved by SDS-PAGE electrophoresis. 4X Bolt LDS sample buffer supplemented with 400 mM DTT (final concentration 1X Bolt LDS with 100 mM DTT) was added to samples before heating at 70 °C for 10 min. SDS-PAGE was run using NuPAGE Bis-Tris 4%–12% gradient gels (Thermo Fisher) with MES or MOPS running buffer according to manufacturer’s instructions. Spectra™ Multicolor Protein Ladder (Thermo Fisher) or Precision Plus Protein™ Kaleidoscope™ Prestained Protein Standards (Bio-Rad Laboratories) were included as protein ladders on the same gels. […] Membranes were imaged on a ChemiDoc™ imaging system, and analyzed with Image Lab software (Bio-Rad Laboratories). […]

Notch1 [4] = assay: Notch1 protein expression, immunoblot, VTC-037 GSCs; type: cell-based, human; details: 50 μM, 24 h
Method: as §2

HES1 mRNA = HES1 mRNA by RT-qPCR, VTC-001 GSCs; type: cell-based, human; details: 50 μM, 24 h, compared to antennapedia alone
Method: RNA was extracted using the PureLink^TM RNA mini extraction kit (Thermo Fisher) and on-column DNA digestion was completed using PureLink^TM DNase according to the manufacturer’s instructions. RNA was reverse transcribed to generate cDNA using the iScript^TM Reverse Transcription SuperMix for RT-qPCR kit (Bio-Rad Laboratories). Real-time PCR was performed using the SYBR select Master Mix for CFX (Thermo Fisher) in hard-shell 96-well PCR plates (Bio-Rad Laboratories) on a CFX Connect Real Time System (Bio-Rad Laboratories). Primer sequences used were: hNOTCH1_Fwd: 5’-CGCACAAGGTGTCTTCCAG-3’; hNOTCH1_Rev: 5’-CGGCGTGTGAGTTGATGA-3’; hHES1_Fwd: 5’-GGCTGGAGAGGCGGCTAA-3’; hHES1_Rev: 5’-[…]-3’; hHEY1_Fwd: 5’-[…]-3’; hHEY1_Rev: 5’-[…]-3’.

VFFKGVKDRVKGRSD [JM2]
Human astrocyte viability (MTS) (normal human astrocytes [1]): did not observe a decrease in human astrocyte viability, even at higher JM2 concentrations; also recorded: no toxic effect of JM2 on normal human astrocytes in vitro
Caspase 3/7 activity in normal human astrocytes (normal human astrocytes [2]): No effect on caspase 3/7
GSC-dependent gliosphere formation (VTC-034 GSCs): inhibits VTC-001, VTC-034, and VTC-037 GSC-dependent gliosphere formation in a dose-dependent manner
Gliosphere size (diameter) (VTC-034 GSCs; n = 4): significant decrease in gliosphere size
Gliosphere number (VTC-034 GSCs; n = 6): significant decrease in gliosphere size as assessed by diameter measurement (Fig. 6B), and number
Notch1 protein expression (Notch1 [3]): significantly decreased Notch1 expression at the protein level
Notch1 protein expression (Notch1 [4]): significantly decreased Notch1 expression at the protein level
Hes1 mRNA expression (HES1 mRNA): significantly decreased the expression of Notch downstream targets Hes1 and Hey1 at the transcription level
